Experimental data from patent US20250049819A1, “METHODS FOR TREATING AND PREVENTING C. DIFFICILE INFECTION” (Paratek Pharmaceuticals, Inc., priority 2016, published 2025).
Values after ≈ are worked out from the molar mass of the structure shown. “Also recorded” adds a separate entry of the source. Read-outs that look alike come from different tables or passages of the source.

Legend:
[1] = system: C. difficile strains (N = 27); test: MIC by broth microdilution against C. difficile clinical isolates; format: cell-based; parameters: Broth Microdilution Range (Minimum Inhibitory Concentration): unit not given here; conditions: 27 isolates; for MIC50 / MIC90: Clostridioides difficile
Description: (§1) The activity of omadacycline was tested in vitro against 27 clinical isolates of C. difficile. […] The experiments were carried out using broth and agar microdilution methods according to Clinical and Laboratory Standards Institute (CLSI) guidelines. […] Each test was run in duplicate.

[2] = system: C. difficile strain ATCC 43596; test: MIC90 against the infection model strain; format: cell-based
[3] = system: C. difficile strains (N = 27); test: MIC by agar dilution against C. difficile clinical isolates; format: cell-based; conditions: 27 isolates
Description: as §1

[4] = system: C. difficile PCR ribotype 027 strain 210; test: In vitro human gut model, C. difficile germination, proliferation and toxin production (Example 4); format: cell-based
Description: (§2) The gut model was inoculated with pooled fecal slurry (5 volunteers ≥60 years of age with no history of antibiotic therapy in the previous 3 months) and left for 2 weeks to allow the bacterial populations to achieve steady state. A single inoculum (˜10^7 cfu/mL) of C. difficile spores (PCR ribotype 027 strain 210) was added into vessel 1 of the gut model on day 14. One week later, on day 21, a second aliquot of C. difficile spores was added, and antibiotic instillation commenced. Model A (LHS) was exposed to moxifloxacin (43 mg/L, once daily, for 7 days) and Model B (RHS) was exposed to omadacycline (430 mg/L, once daily, for 7 days) commenced on day 21.
(§3) Bacterial populations in the gut model were monitored using selective agars to count viable bacterial colonies. Populations were monitored every other day for the first 2 weeks until the steady state was reached, and daily thereafter. C. difficile populations were monitored in all three vessels, and all other bacterial groups (total obligate anaerobes, total facultative anaerobes, lactose fermenting Enterobacteriaceae, Enterococci, total Clostridia, Lactobacilli, Bifidobacteria and B. fragilis group) were monitored in vessels 2 and 3 only. Vessel 3, which represents the distal colon, is of most physiological relevance in terms of propensity to induce CDI. C. difficile total viable counts and spores counts were monitored using viable counting and a differential alcohol shock viable count on selective agars. From day 14 onwards C. difficile cytotoxin was measured using a quantitative VERO cell cytotoxicity assay. Samples of 1 mL each were centrifuged at 16,000×g for 15 minutes, and the supernatants were removed. Six 1:10 serial dilutions (to 10^−6) of culture supernatants from the gut model were prepared. Twenty microliters of the appropriate dilution was added to VERO cell monolayers and a further 20 μL of C. sordellii antitoxin (diluted 1:10 in sterile distilled water) was placed in the corresponding antitoxin row. Monolayers were examined after 24 and 48 hours of incubation in 5% CO2, with a positive result indicated by the presence of cell rounding with concurrent neutralization of the effect by C. sordellii antitoxin. Cytotoxin titers (relative units, RU) were an arbitrary log10 scale, and the cytotoxin titer is reported in the highest dilution with >70% cell rounding, i.e. 10^0=1 RU, 10^−1=2 RU, 10^−2=3 RU. Samples were taken daily from day 21 onwards to determine antimicrobial concentrations in the gut model vessels by a bioassay. Concentrations of moxifloxacin were determined using Isosensitest agar with Escherichia coli as the indicator organism. Concentrations of omadacyline were determined using Wilkins Chalgren agar with Kocuria rhizophila as the indicator organism.

[5] = system: gut microflora populations; test: In vitro human gut model, gut microflora populations (Example 4); format: cell-based
Description: as §2, §3

[6] = system: C. difficile and gut microbiota; conditions: published gut model studies; cited from earlier work
[7] = system: C. difficile strain ATCC 43596; test: Hamster model of C. difficile-associated diarrhea, survival; format: in vivo
[8] = Wilkins-Chalgren broth, 48 hours anaerobic
[9] = Wilkins-Chalgren broth, 48 hours anaerobic, read-out: Broth Microdilution MIC90
[10] = Clostridioides difficile, ATCC43596, replicate plate A, read-out: MIC90 Plate A
[11] = Clostridioides difficile, ATCC43596, replicate plate B, read-out: MIC90 Plate B
[12] = Clostridioides difficile, ATCC43596, read-out: MIC90
[13] = vessel 1, 43 mg/L once daily for 7 days
[14] = vessel 2 and vessel 3, 43 mg/L once daily for 7 days
[15] = vessels 2 and 3, once daily for 7 days
[16] = oral 50 mg/kg/day for 5 days, N=10

CO/N=C(\C(=O)N[C@@H]1C(=O)N2C(C(=O)O)=C(COC(C)=O)CS[C@H]12)c1csc(N)n1 [Cefotaxime]
MIC50 [1, 8]: 64000 µg/mL (≈ 141000 µM)

CCC[C@@H]1C[C@@H](C(=O)N[C@@H]([C@H]2O[C@H](SC)[C@H](O)[C@@H](O)[C@H]2O)[C@H](C)Cl)N(C)C1 [Clindamycin]
MIC50 [1, 8]: 4000 µg/mL (≈ 9410 µM)
MIC90 [1, 9]: > 16000 µg/mL
MIC90 [2]: no activity
MIC90 [2, 10]: > 32 µg/mL
MIC90 [2, 11]: > 32 µg/mL

C[C@H]1c2cccc(O)c2C(=O)C2=C(O)[C@]3(O)C(=O)C(C(N)=O)=C(O)[C@@H](N(C)C)[C@@H]3[C@@H](O)[C@@H]21 [Doxycycline]
MIC90 ([1]; read-out: MIC90 by broth dilution): 0.5 µg/mL (≈ 1.13 µM)
MIC50 [1, 8]: 30 µg/mL (≈ 67.5 µM)
MIC90 [1, 9]: 500 µg/mL (≈ 1130 µM)
MIC90 ([3]; Clostridioides difficile): 1 µg/mL (≈ 2.25 µM)

C[C@@H](O)[C@H]1C(=O)N2C(C(=O)O)=C(SCCN=CN)C[C@H]12 [Imipenem]
MIC50 [1, 8]: 4000 µg/mL (≈ 13400 µM)
MIC90 [1, 9]: 8000 µg/mL (≈ 26700 µM)

Cc1ncc([N+](=O)[O-])n1CCO [Metronidazole]
MIC50 [1, 8]: 120 µg/mL (≈ 701 µM)
MIC90 [1, 9]: 500 µg/mL (≈ 2920 µM)
MIC90 [2, 12]: 0.06 µg/mL (≈ 0.351 µM)
MIC90 [2, 10]: 0.06 µg/mL (≈ 0.351 µM)
MIC90 [2, 11]: 0.06 µg/mL (≈ 0.351 µM)
Agar Microdilution Range (Minimum Inhibitory Concentration) ([3]; agar dilution): 0.06 to 0.5 mg/mL

COc1c(N2C[C@@H]3CCCN[C@@H]3C2)c(F)cc2c(=O)c(C(=O)O)cn(C3CC3)c12 [Moxifloxacin]
C. difficile toxin detection (VERO cell cytotoxicity assay) ([4]; all vessels): toxin detected in all three vessels
day by which toxin was undetectable in all vessels ([4]; all vessels): ≤ 42 days
signs of simulated CDI ([4]; once daily for 7 days, omadacycline 430 mg/L, moxifloxacin 43 mg/L): induced simulated CDI
peak C. difficile cytotoxin titer, vessel 1 [4, 13]: 2 relative units
peak C. difficile total viable counts, vessel 1 [4, 13]: ~4.5 log10 cfu/mL
peak C. difficile cytotoxin titer, vessel 2 and vessel 3 [4, 14]: 3 relative units
peak C. difficile total viable counts, vessel 2 and vessel 3 [4, 14]: ~6 log10 cfu/mL
time for all populations to return to pre-antibiotic levels following end of antibiotic exposure ([5]; all populations): ~1 week
decline in B. fragilis group populations, vessel 2 ([5]; vessel 2, 43 mg/L once daily for 7 days): ~8 log10 cfu/mL
decline in B. fragilis group populations, vessel 3 ([5]; vessel 3, 43 mg/L once daily for 7 days): ~4 log10 cfu/mL
decline in Enterococcus spp. / Enterococci populations [5, 15]: ~4 log10 cfu/mL
decline in Lactobacilli [5, 15]: ~3 log10 cfu/mL

CN(C)c1cc(NC(=O)CNC(C)(C)C)c(O)c2c1C[C@H]1C[C@H]3[C@H](N(C)C)C(O)=C(C(N)=O)C(=O)[C@@]3(O)C(O)=C1C2=O [Tigecycline]
induction of simulated CDI (C. difficile germination and toxin production) in the gut model [6]: do not promote C. difficile germination and toxin production; also recorded: have not induced simulated CDI in the gut model
MIC90 ([2]; Clostridioides difficile, ATCC43596): 0.06 µg/mL (≈ 0.102 µM)
MIC90 ([2]; Clostridioides difficile, ATCC43596, read-out: MIC90 Plate A): 0.06 µg/mL (≈ 0.102 µM)
MIC90 ([2]; Clostridioides difficile, ATCC43596, read-out: MIC90 Plate B): 0.06 µg/mL (≈ 0.102 µM)

CN[C@H](CC(C)C)C(=O)N[C@H]1C(=O)N[C@@H](CC(N)=O)C(=O)N[C@H]2C(=O)N[C@H]3C(=O)N[C@H](C(=O)N[C@H](C(=O)O)c4cc(O)cc(O)c4-c4cc3ccc4O)[C@H](O)c3ccc(c(Cl)c3)Oc3cc2cc(c3O[C@@H]2O[C@H](CO)[C@@H](O)[C@H](O)[C@H]2O[C@H]2C[C@](C)(N)[C@H](O)[C@H](C)O2)Oc2ccc(cc2Cl)[C@H]1O [Vancomycin]
Median Survival ([7]; hamster, in vivo): 2 days
percent survival at day 2 post infection ([7]; hamster, in vivo): 40%
percent survival by day 11 [7, 16]: 30%
survival by day 14 [7, 16]: all animals succumbed to the infection
MIC90 [2, 12]: 0.06 µg/mL (≈ 0.0414 µM)
MIC90 [2, 10]: 0.06 µg/mL (≈ 0.0414 µM)
MIC90 [2, 11]: 0.06 µg/mL (≈ 0.0414 µM)

amoxicillin clavulanate
Broth Microdilution MIC50 [1, 8]: 0.25 mg/mL
Broth Microdilution MIC90 [1, 8]: 0.5 mg/mL
Broth Microdilution Range (Minimum Inhibitory Concentration) [1, 8]: 0.12-0.5
Agar Microdilution MIC50 ([3]; agar dilution): 0.05 mg/mL
Agar Microdilution MIC90 ([3]; agar dilution): 1 mg/mL
Agar Microdilution Range (Minimum Inhibitory Concentration) ([3]; agar dilution): 0.25-1

piperacillin-tazobactam
induction of simulated CDI (C. difficile germination and toxin production) in the gut model [6]: do not promote C. difficile germination and toxin production; also recorded: have not induced simulated CDI in the gut model
